{"source": "patent US20120156307A1", "about": "“MEDICAL USES OF NANOCLUSTERED WATER” (priority 2010, published 2012)", "key": {"[1]": {"test_system": "in vitro reconstituted human 3D skin with a corneum layer", "details": "1% SLS, 10% Glycolic acid, cited from earlier work"}, "[2]": {"test_system": "in vitro reconstituted human 3D skin with a corneum layer", "assay": "Keratolytic effect, MTT assay on reconstituted human 3D skin", "assay_type": "cell-based", "procedure": "The assay was carried out on a three-dimensional reconstituted human skin model, composed of human epidermal keratinocytes that have been proliferating and differentiating in vitro in peculiar conditions in order to build up a well-differentiated stratum corneum. […] When the damage of the corneum layer is stronger, as it happens with keratolytic agents, the cytotoxic effects of the germinative layer are faster to develop. […] Thirty μL of each substance have been applied to the cell culture and incubation at 37° C. was performed for 15 and 120 minutes respectively."}, "[3]": {"test_system": "peripheral blood mononuclear cells (PBMC)", "assay": "In vitro inhibition of PBMC proliferation", "assay_type": "cell-based"}}, "note": "Where two headings read alike, the source gives them in different places."}
{"smiles": "CCCCCCCCCCCCOS(=O)(=O)[O-].[Na+]", "note": "[SLS]", "values": [{"measurement": "cell death, as generally stated for the reference agents", "setting": "[1]; after 15'", "value": "does not cause any cell death"}, {"measurement": "cell death, as generally stated for the reference agents", "setting": "[1]; after 2 h", "value": "about 30%"}, {"measurement": "cell death (cytotoxic effect)", "setting": "[2]; after 2 hours, 1% SLS", "value": 27.69, "unit": "%"}]}
{"smiles": "O=C(O)CO", "note": "[glycolic acid]", "values": [{"measurement": "cell death, as generally stated for the reference agents", "setting": "[1]; after 15'", "value": 50, "unit": "%"}, {"measurement": "cell death, as generally stated for the reference agents", "setting": "[1]; after 2 h", "value": 90, "unit": "%"}, {"measurement": "cell death", "setting": "[2]; at 15', 10% glycolic acid", "value": 45.86, "unit": "%"}]}
{"smiles": "C[C@H]1C[C@H]2[C@@H]3CCC4=CC(=O)C=C[C@]4(C)[C@@]3(F)[C@@H](O)C[C@]2(C)[C@@]1(O)C(=O)CO", "note": "[Betamethasone, betamethasone]", "values": [{"measurement": "inhibition at 0.01 µM", "setting": "[3]; Batch 1, 10 nM", "value": 87.7, "unit": "%"}, {"measurement": "inhibition at 0.01 µM", "setting": "[3]; Batch 2, 10 nM", "value": 85.7, "unit": "%"}, {"measurement": "inhibition at 0.01 µM", "setting": "[3]; Batch 3, 10 nM", "value": 79.4, "unit": "%"}, {"measurement": "inhibition at 0.01 µM", "setting": "[3]; Batch 4, 10 nM", "value": 88.5, "unit": "%"}, {"measurement": "inhibition at 0.01 µM", "setting": "[3]; Mean, 10 nM", "value": 85.3, "unit": "%"}]}
